Key:
[1] = target: T1, BCL-XL–BCL-XS interactions (Homo sapiens, UniProt Q07817); assay: Mammalian two-hybrid assay, BCL-XL–BCL-XS, HeLa cells; assay type: cell-based; conditions: 24 h, luciferase two-hybrid
T1 construct: expressed in transfected cells; host or cells: HeLa cells stably expressing a GAL4-luciferase reporter
Description: (a) H929 cells were treated with increasing concentrations of A-1210477 for 4 h. […] All data represent the mean of triplicate experiments, with error bars indicating the S.D. (b) Quantitative measurement of protein–protein interactions using a luciferase-based mammalian two-hybrid assay. […] All data represent the means of triplicate experiments, with error bars indicating the S.Ds.
HeLa cells stably expressing a GAL4-luciferase reporter were seeded into 10 cm dishes at 5 × 10^5 cells per plate. In all, 24 μg of a plasmid expressing both the ‘bait' and ‘prey' fusion proteins (GAL4DBD-BIM and VP16AD-BCL-2, GAL4DBD-BCL-XL and VP16AD- BCL-XS, or GAL4DBD-MCL-1 and VP16AD-NOXA, respectively) were mixed with 1.5 ml OptiMEM (Invitrogen). Separately, 24 μl Lipofectamine 2000 (Invitrogen) were mixed with 1.5 ml OptiMEM. Both solutions were incubated for 5 min (RT) and then mixed together for 20 min. Three milliliters of the mixture was added to cells in 12 ml culture medium lacking antibiotics, incubated at 37 °C for 24 h, and then transferred to 96-well plates at 20 000 cells per well. Compounds were added in half-log dilutions, starting from 1 μM and ending at 0.0001 μM for 24 h, and luciferase activity was assessed using ONE-Glo reagent (Promega). All data were plotted as the percentage of complex remaining relative to untreated controls.

[2] = system: Bak-/- Bax-/- MEFs; assay: Cell viability, Bak-/- Bax-/- murine embryonic fibroblasts; assay type: cell-based; conditions: 48 h
Description: Supplementary Figure 4. […] Murine embryonic fibroblasts (MEFs) lacking Bak and Bax were treated with increasing concentrations of A-1155905, A-1208746, A-1210477, staurosporine or bortezomib for 48 h before assessing cell viability. Data represent the mean of triplicate experiments and error bars indicate the standard error of the mean.

[3] = system: H23 cells; assay: Cell viability, H23 cells; assay type: cell-based, human
Description: Figure 5 A-1210477 kills MCL-1-dependent NSCLC cancer cell lines. NSCLC cell lines (a) H2110 or (c) H23 were transfected with a construct expressing the MCL1 CDS tagged with a Flag epitope or empty control vector. These cells were subsequently transfected with siRNAs targeting the MCL1 CDS, the MCL1 3′ UTRa or UTRb, or a scrambled control sequence. Cell viability was assessed 72 h later with MCL-1 and Flag immunoblots performed in parallel. (b) H2110 or (d) H23 cells were treated with increasing concentrations of A-1210477 for 72 h before assessing cell viability.
(§1) Adherent cell lines were seeded at 50 000 cells per well in 96-well plates and treated for 48 h with compounds diluted in half-log steps starting at 30 μM and ending at 0.001 μM. Multiple myeloma cell lines were seeded at 15 000–20 000 cells per well and treated similarly. Effects on proliferation and viability were determined using CellTiter-Glo reagent from Promega (Madison, WI, USA) according to the manufacturer's instructions. IC50 values were determined by non-linear regression analysis of the concentration response data.

[4] = system: BxPC-3 cells; assay: Navitoclax / A-1210477 combination cell viability, BxPC-3 cells; assay type: cell-based; conditions: BxPC-3, 48 h
Description: Figure 6 A-1210477 synergizes with navitoclax to kill hematological and solid tumor cell lines. BxPC-3, EJ-1, H23, and OPM-2 cells were treated with increasing concentrations of navitoclax in the presence or absence of increasing concentrations of A-1210477 for 48 h before assessing cell viability. All data points represent the means of triplicate experiments, with error bars indicating the S.E.M. TEXT PRINTED IN THE PICTURE: A-1210477 + navitoclax: Bliss sum (BxPC-3): 716; Bliss sum (EJ-1): 464; Bliss sum (H23): 76; Bliss sum (OPM-2): 946 DOUBTS OF THE COPYIST ABOUT THIS PICTURE: The Bliss sums apply to the combination of A-1210477 and navitoclax. The picture prints the two names separately (legend heading and axis title), not as one joined label.
as §1

[5] = target: MCL-1 (Homo sapiens, UniProt Q07820); assay: MCL-1 protein levels by immunoblotting in HCC-1806 cells; assay type: cell-based; design: endogenous in cells; host or cells: HCC-1806; conditions: immunoblot
Description: Figure 1 MCL-1 levels are elevated in cancer cells after treatment with MCL-1-binding small molecules. (a) H929 multiple myeloma cells were treated for 4 h with 10 μM A-1210477 before immunopreciptating MCL-1. […] A control H929 lysate was run in lane 1, and an immunoprecipitation with a non-specific antibody (Ig) was run in lane 2. The positions of molecular weight markers (specified in kiloDaltons) are indicated on the left. (b) HCC-1806 breast cancer cells were incubated with increasing concentrations of A-1210477 (0.1, 0.5, 1, 5, 10, 15, or 20 μM) or bortezomib (2, 10, or 50 nM) for 8 h before assessing MCL-1 and NOXA levels by immunoblotting. β-Actin was probed as a protein loading control. The lower graph depicts reverse transcriptase-PCR quantification of MCL1 mRNA from HCC-1806 cells treated for 8 h with similar concentrations of A-1210477. (c) HCC-1806 cells were incubated with increasing concentrations (0.1, 0.5, 1, 5, 10, and 20 μM) of A-954248, A-962653, or A-1248767 for 24 h before assessing MCL-1 and BCL-XL levels by immunoblotting. β-Actin was probed as a protein loading control
Cells were scraped into cold PBS, pelleted, and then resuspended in 100–200 μl ice-cold insect cell lysis buffer supplemented with protease inhibitors (BD Biosciences Pharmingen, San Diego, CA, USA). Cells were lysed by sonication, and the debris was cleared in a microcentrifuge. […]

MCL-1, sequence (Q07820 whole entry): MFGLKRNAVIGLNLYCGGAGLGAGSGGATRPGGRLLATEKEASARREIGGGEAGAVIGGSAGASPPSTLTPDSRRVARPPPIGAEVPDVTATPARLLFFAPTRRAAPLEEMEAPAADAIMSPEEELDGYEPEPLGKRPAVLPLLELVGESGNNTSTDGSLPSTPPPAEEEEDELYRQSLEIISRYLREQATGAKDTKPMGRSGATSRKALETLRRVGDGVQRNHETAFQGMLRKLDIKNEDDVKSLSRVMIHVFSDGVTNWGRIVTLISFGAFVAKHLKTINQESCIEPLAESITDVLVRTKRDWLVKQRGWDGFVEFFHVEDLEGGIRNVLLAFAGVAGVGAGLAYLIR
T1 sequence (Q07817 whole entry, the tested form may be a part): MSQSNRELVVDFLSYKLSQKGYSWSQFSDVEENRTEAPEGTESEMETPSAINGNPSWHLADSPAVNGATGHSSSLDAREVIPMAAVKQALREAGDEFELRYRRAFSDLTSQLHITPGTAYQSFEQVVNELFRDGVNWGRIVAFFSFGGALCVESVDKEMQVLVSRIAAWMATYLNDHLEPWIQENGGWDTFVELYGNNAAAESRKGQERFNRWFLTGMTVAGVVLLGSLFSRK

SMILES: Cc1nn(C)c(COc2ccc(N3CCN(S(=O)(=O)N(C)C)CC3)cc2)c1-c1cccc2c(CCCOc3cccc4ccccc34)c(C(=O)O)n(CCN3CCOCC3)c12 [A-1210477]
- effect on BCL-XL–BCL-XS interactions [1]: no effect
- killing of Bak-/- Bax-/- MEFs [2]: do not Kill
- IC50 ([3]; H23): < 10 µM
- EC50 ([3]; H23, 72 h): 7.2 µM
- potentiation of navitoclax [4]: substantially shifted the dose–response curve of navitoclax
- effect on MCL-1 protein levels ([5]; 0.1-20 μM): triggered MCL-1 elevation
- lowest concentration at which increases in MCL-1 protein could be observed ([5]; 8 h or 24 h): 0.5 µM

— PMC4669759 (Cell Death & Disease, 2015)
